Patent publication US8158352B2, “Screening of a novel hepatic syndrome and its uses” (Assistance Publique-Hopitaux de Paris, priority 2000, dated 2012)

Test system: hepatic bile of patients with intrahepatic cholestasis, cholesterol microcholelithiasis and MDR3 gene abnormality
Test: Bile lipid composition of the hepatic bile from patients receiving treatment with UDCA
Assay type: in vivo, human
Conditions: for Cholesterol saturation index (CSI): calculated from Carey's critical tables
Experimental: The concentration of total bile salts is measured by an enzymatic technique using 3α-hydroxysteroid dehydrogenase (Enzabile, Nycomed, Oslo, Norway). The content of total phospholipids is determined by an enzymatic method in the presence of phospholipase D and choline oxidase. The cholesterol is determined by an enzymatic reaction with cholesterol oxidase or cholesterol esterase. The cholesterol saturation indices for the hepatic bile samples are calculated from Carey's critical tables (J. Lipid Res., 1978, 19, 945-955).
The bile lipid composition of the hepatic bile was studied using samples obtained by radioscopy of the duodenum (patients 2 and 3) or using a T tube (patients 5 and 6). The results obtained in the untreated patients or the patients receiving treatment with UDCA are given respectively in Tables V and VI below.

[1] = Case 5, receiving treatment with UDCA
[2] = Case 6, receiving treatment with UDCA

In the case of `C[C@H](CCC(=O)O)[C@H]1CC[C@H]2[C@@H]3[C@@H](O)C[C@@H]4C[C@H](O)CC[C@]4(C)[C@H]3CC[C@]12C` [UDCA, ursodeoxycholic acid], the “Bile lipid classes: Bile salts (BS)” value [1] is reported as 47.5 mol %, the “Bile lipid classes: Cholesterol (CH)” value [1] is reported as 16.8 mol % and the “Bile lipid classes: Phospholipids (PL)” value [1] is reported as 35.7 mol %. The “Concentration of bile PL” value [1] was 7.77, the “Lipid ratios: CH/BS” value [1] was 0.35 and the “Lipid ratios: CH/PL” value [1] was 0.47. For the same compound, the “Lipid ratios: PL/BS” value [1] was 0.75, the “Cholesterol saturation index (CSI)” value [1] was 4.0 and the “Bile lipid classes: Bile salts (BS)” value [2] was 72 mol %. The “Bile lipid classes: Cholesterol (CH)” value [2] was 8.2 mol %, the “Bile lipid classes: Phospholipids (PL)” value [2] was 19.7 mol % and the “Concentration of bile PL” value [2] was 6.03. The “Lipid ratios: CH/BS” value [2] was 0.11, the “Lipid ratios: CH/PL” value [2] was 0.42 and the “Lipid ratios: PL/BS” value [2] was 0.27. The “Cholesterol saturation index (CSI)” value [2] was 1.8.
